Reference: patent US6458806B1, “Aryl alkenamides derivatives as MCP-1 antagonists” (Millennium Pharmaceuticals, Inc., priority 1996, dated 2002)
Where a name gives a salt, the structure may show the parent alone.

Molecular target: T1, MCP-1 receptor (Homo sapiens, UniProt P41597)
T1 construct: host or cells: THP-1 cell membranes
Assay: MCP-1 binding assay (125I-MCP-1, THP-1 cell membranes)
Conditions: 0.2 nM 125I-labeled MCP-1, averages of several or two experiments, read-out: Inhibition Of MCP-1 Binding IC50
Protocol: Membranes used in the MCP-1 binding assay were prepared from THP-1 cells (human monocytic cell line source—American Type Culture Collection, Tumor Immunology Bank #202, Rockville, Md., accession no. ATCC TIB 202). Cells were harvested by centrifugation and washed twice in ice-cold PBS (phosphate-buffered saline) and the cell pellet was frozen at −80° C. in some cases. Cells were resuspended in ice-cold lysis buffer 5mM HEPES (2-(4N-,[2-hydroxyethyl] piperazin-1-yl)-N′-(2-ethanesulfonic acid), pH 7.5, 2 mM EDTA (ethylenediaminetetraacetic acid), 5 ug/ml each leupeptin, aprotinin, chymostatin (protease inhibitors), and 100 ug/ml PMSF (phenylmethane sulfonyl fluoride—also a protease inhibitor)) at a concentration of 5×10^7 cells/ml. […] Typical binding assays used 10-20 ug/well of total membrane protein as determined with a standard protein assay (e.g. BioRad, Richmond, Calif.).
For binding, 10-20 ug total membrane protein were included in the binding reaction along with 0.2 nM I^125-labeled MCP-1 (Amersham, Arlington Heights, Ill.) with or without unlabeled competitor MCP-1 (Peprotech, Rocky Hill, N.J.) (at 250-500 nM). […] Filters were dried and counted in a Beta-Plate scintillation counter using standard scintillation fluid. […]
IC50s were calculated using a non-linear 3-parameter logistic curve fit. […]

T1 sequence (P41597 whole entry): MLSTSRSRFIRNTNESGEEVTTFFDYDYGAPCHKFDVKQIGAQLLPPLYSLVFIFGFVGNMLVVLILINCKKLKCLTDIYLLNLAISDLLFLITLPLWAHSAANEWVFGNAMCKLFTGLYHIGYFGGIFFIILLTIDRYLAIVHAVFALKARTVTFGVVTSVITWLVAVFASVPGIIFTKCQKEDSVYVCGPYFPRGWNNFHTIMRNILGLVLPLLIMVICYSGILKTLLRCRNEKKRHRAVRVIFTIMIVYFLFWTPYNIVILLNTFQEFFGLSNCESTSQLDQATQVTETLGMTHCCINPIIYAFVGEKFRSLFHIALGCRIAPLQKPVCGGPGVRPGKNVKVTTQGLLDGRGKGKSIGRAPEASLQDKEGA

IC50 [µM] | SMILES
10.8 | O=C(C=CC=Cc1ccc(Cl)c(Cl)c1)NCCCN1CCOCC1 [Example 2, 5-(3,4-Dichloro-phenyl)-penta-2,4-dienoic Acid (3-morpholin-4-yl-propyl)-amide]

System: not given
Assay: not given
Conditions: not given

melting point [°C] | SMILES
192 to 194 | O=C(/C=C/C=C/c1ccc(Cl)c(Cl)c1)NCCCN1CCCCC1 (as salt: HCl) [Example 1, 5-(3,4-Dichloro-phenyl)-penta-2,4-dienoic Acid (3-piperidin-1-yl-propyl)-amide-HCl]
130 to 132 | O=C(C=CC=Cc1ccc(Cl)c(Cl)c1)NCCCN1CCOCC1 [Example 2, 5-(3,4-Dichloro-phenyl)-penta-2,4-dienoic Acid (3-morpholin-4-yl-propyl)-amide]
40 to 50 | Cc1ccc(/C=C/C=C/C(=O)NCCCN2CCCCC2)cc1 [Example 9, (2E,4E)-5-p-Tolyl-penta-2,4-dienoic Acid (3-piperidin-1-yl-propyl)-amide]
69 to 73 | COc1ccc(/C=C/C=C/C(=O)NCCCN2CCCCC2)cc1 [Example 10, (2E,4E)-5-(4-Methoxy-phenyl)-penta-2,4-dienoic Acid (3-piperidin-1-yl-propyl)-amide]
225 to 226 | O=C(/C=C/C=C/c1ccc([N+](=O)[O-])cc1)NCCCN1CCCCC1 [Example 11, (2E,4E)-5-(4-Nitro-phenyl)-penta-2,4-dienoic Acid (3-piperidin-1-yl-propyl)-amide]
60 to 62 | O=C(/C=C/C=C/c1ccc(Cl)cc1)NCCCN1CCCCC1 [Example 12, (2E,4E)-5-(4-Chloro-phenyl)-penta-2,4-dienoic Acid (3-piperidin-1-yl-propyl)-amide]
111 to 115 | O=C(/C=C/C=C/c1ccccc1)NCCCN1CCCCC1 [Example 13, (2E,4E)-5-Phenyl-penta-2,4-dienoic Acid (3-piperidin-1-yl-propyl)-amide]
165 to 168 | O=C(/C=C/C=C/c1ccc(-c2ccccc2)cc1)NCCCN1CCCCC1 [Example 14, (2E,4E)-5-Biphenyl-4-yl-penta-2,4-dienoic Acid (3-piperidin-1-yl-propyl)-amide]
150 to 156 | O=C(/C=C/C=C/c1ccc2ccccc2c1)NCCCN1CCCCC1 [Example 15, (2E,4E)-5-Naphthalen-2-yl-penta-2,4-dienoic Acid (3-piperidin-1-yl-propyl)-amide]
186 to 187 | O=C(/C=C/C=C/c1cc(Cl)cc(Cl)c1)NCCCN1CCCCC1 [Example 16, (2E,4E)-5-(3,5-Dichloro-phenyl)-penta-2,4-dienoic Acid (3-piperidin-1-yl-propyl)-amide]
66 to 69 | O=C(/C=C/C=C/c1ccc(Cl)cc1Cl)NCCCN1CCCCC1 [Example 17, (2E,4E)-5-(2,4-Dichloro-phenyl)-penta-2,4-dienoic Acid (3-piperidin-1-yl-propyl)-amide]
165 to 170 | CC(/C=C/c1ccc(Cl)c(Cl)c1)=C\C(=O)NCCCN1CCCCC1 [Example 19, (2E,4E)-5-(3,4-Dichloro-phenyl)-3-methyl-penta-2,4-dienoic Acid (3-piperidin-1-yl-propyl)-amide]
50 to 60 | CC(=C/C(=O)NCCCN1CCCCC1)/C=C/c1ccc(Cl)c(Cl)c1 [Example 20, (2Z,4E)-5-(3,4-Dichloro-phenyl)-3-methyl-penta-2,4-dienoic Acid (3-piperidin-1-yl-propyl)-amide]
65 to 70 | C/C(=C\C=C\C(=O)NCCCN1CCCCC1)c1ccc(Cl)c(Cl)c1 [Example 21, (2E,4E)-5-(3,4-Dichloro-phenyl)-hexa-2,4-dienoic Acid (3-piperidin-1-yl-propyl)amide]
55 to 65 | O=C(/C=C/C=C(c1ccccc1)c1ccccc1)NCCCN1CCCCC1 [Example 22, (2E) -5,5-Diphenyl-penta-2,4-dienoic acid (3-piperidin-1-yl-propyl)-amide]
